According to ChEMBL document CHEMBL1201862, “PubChem BioAssay data set” (2004):
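Compound exposure: 48 hours, 5 concentrations, 96-well plates. The concentration for 50% growth inhibition is given as GI50.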 Activity calls are given as the source filed them. Rule as the data show it: active = GI50 up to about 1.1 µM and inactive = higher.

Tests used:
Assay in all cases: NCI anticancer screen, dose series, 48 h
[1] = tested on: Hs-578T
[2] = tested on: A549
[3] = tested on: SNB-19
[4] = tested on: HCT-15
[5] = tested on: UACC-62
[6] = tested on: NCI-H522
[7] = tested on: DU-145
[8] = tested on: CAKI-1
[9] = tested on: SK-MEL-2
[10] = tested on: M14
[11] = tested on: UACC-257
[12] = tested on: RXF 393
[13] = tested on: MDA-N
[14] = tested on: HT-29
[15] = tested on: BT-549
[16] = tested on: SR
[17] = tested on: OVCAR-8
[18] = tested on: OVCAR-5
[19] = tested on: KM12
[20] = tested on: 786-0
[21] = tested on: MCF7
[22] = tested on: NCI-H226
[23] = tested on: T47D
[24] = tested on: RPMI-8226
[25] = tested on: MDA-MB-435
[26] = tested on: A498
[27] = tested on: Malme-3M
[28] = tested on: HCC 2998
[29] = tested on: HCT-116
[30] = tested on: LOX IMVI
[31] = tested on: SN12C
[32] = tested on: CCRF-CEM
[33] = tested on: MDA-MB-231
[34] = tested on: IGROV-1
[35] = tested on: SF-295
[36] = tested on: TK-10
[37] = tested on: NCI-H460
[38] = tested on: MOLT-4
[39] = tested on: SF-268
[40] = tested on: K562
[41] = tested on: OVCAR-4
[42] = tested on: HOP-62
[43] = tested on: PC-3
[44] = tested on: U-251
[45] = tested on: UO-31
[46] = tested on: SNB-75
[47] = tested on: COLO 205
[48] = tested on: OVCAR-3
[49] = tested on: SK-MEL-5
[50] = tested on: ACHN
[51] = tested on: SK-OV-3
[52] = tested on: SW-620
[53] = tested on: NCI/ADR-RES
[54] = tested on: EKVX
[55] = tested on: SK-MEL-28
[56] = tested on: NCI-H23
[57] = tested on: HL-60
[58] = tested on: SF-539
[59] = tested on: HOP-92

SMILES: NNC1=Nc2ccc(Cl)cc2C(=S)N2CSCC12 (stereo not drawn)
- GI50 [1]: > 100 µM (inactive)
- GI50 [2]: > 100 µM (inactive)
- GI50 [3]: > 100 µM (inactive)
- GI50 [4]: > 100 µM
- GI50 [5]: > 100 µM (inactive)
- GI50 [6]: > 100 µM (inactive)
- GI50 [7]: > 100 µM (inactive)
- GI50 [8]: > 100 µM (inactive)
- GI50 [9]: > 100 µM (inactive)
- GI50 [10]: > 100 µM (inactive)
- GI50 [11]: > 100 µM (inactive)
- GI50 [12]: > 100 µM (inactive)
- GI50 [13]: > 100 µM (inactive)
- GI50 [14]: > 100 µM (inactive)
- GI50 [15]: > 100 µM (inactive)
- GI50 [16]: > 100 µM (inactive)
- GI50 [17]: > 100 µM (inactive)
- GI50 [18]: > 100 µM (inactive)
- GI50 [19]: 34.6 µM (inactive)
- GI50 [20]: > 100 µM (inactive)
- GI50 [21]: > 100 µM (inactive)
- GI50 [22]: > 100 µM (inactive)
- GI50 [23]: > 100 µM (inactive)
- GI50 [24]: > 100 µM (inactive)
- GI50 [25]: > 100 µM (inactive)
- GI50 [26]: > 100 µM (inactive)
- GI50 [27]: > 100 µM (inactive)
- GI50 [28]: > 100 µM (inactive)
- GI50 [29]: > 100 µM (inactive)
- GI50 [30]: > 100 µM (inactive)
- GI50 [31]: > 100 µM (inactive)
- GI50 [32]: > 100 µM (inactive)
- GI50 [33]: > 100 µM (inactive)
- GI50 [34]: > 100 µM (inactive)
- GI50 [35]: > 100 µM (inactive)
- GI50 [36]: > 100 µM (inactive)
- GI50 [37]: > 100 µM (inactive)
- GI50 [38]: > 100 µM (inactive)
- GI50 [39]: > 100 µM (inactive)
- GI50 [40]: > 100 µM (inactive)
- GI50 [41]: > 100 µM (inactive)
- GI50 [42]: > 100 µM (inactive)
- GI50 [43]: > 100 µM (inactive)
- GI50 [44]: > 100 µM (inactive)
- GI50 [45]: > 100 µM (inactive)
- GI50 [46]: > 100 µM (inactive)
- GI50 [47]: > 100 µM (inactive)
- GI50 [48]: > 100 µM (inactive)
- GI50 [49]: > 100 µM (inactive)
- GI50 [50]: > 100 µM (inactive)
- GI50 [51]: > 100 µM (inactive)
- GI50 [52]: > 100 µM (inactive)
- GI50 [53]: > 100 µM (inactive)
- GI50 [54]: > 100 µM (inactive)
- GI50 [55]: > 100 µM (inactive)

SMILES: O=C(OCCN=c1c2ccccc2ccc2ccccc12)c1cc([N+](=O)[O-])cc([N+](=O)[O-])c1
- GI50 [1]: > 100 µM (inactive)
- GI50 [2]: > 100 µM (inactive)
- GI50 [3]: > 100 µM (inactive)
- GI50 [4]: > 100 µM
- GI50 [5]: > 100 µM (inactive)
- GI50 [7]: > 100 µM (inactive)
- GI50 [8]: > 100 µM (inactive)
- GI50 [9]: > 100 µM (inactive)
- GI50 [10]: > 100 µM (inactive)
- GI50 [56]: > 100 µM (inactive)
- GI50 [11]: > 100 µM (inactive)
- GI50 [12]: > 100 µM (inactive)
- GI50 [13]: > 100 µM (inactive)
- GI50 [14]: > 100 µM (inactive)
- GI50 [15]: 25.8 µM (inactive)
- GI50 [16]: > 100 µM (inactive)
- GI50 [17]: > 100 µM (inactive)
- GI50 [18]: > 100 µM (inactive)
- GI50 [19]: > 100 µM (inactive)
- GI50 [20]: > 100 µM (inactive)
- GI50 [21]: > 100 µM (inactive)
- GI50 [22]: > 100 µM (inactive)
- GI50 [23]: > 100 µM (inactive)
- GI50 [24]: > 100 µM (inactive)
- GI50 [25]: > 100 µM (inactive)
- GI50 [27]: 21.5 µM (inactive)
- GI50 [57]: > 100 µM (inactive)
- GI50 [29]: > 100 µM (inactive)
- GI50 [30]: > 100 µM (inactive)
- GI50 [31]: > 100 µM (inactive)
- GI50 [32]: > 100 µM (inactive)
- GI50 [33]: > 100 µM (inactive)
- GI50 [34]: > 100 µM (inactive)
- GI50 [35]: > 100 µM (inactive)
- GI50 [36]: > 100 µM (inactive)
- GI50 [37]: > 100 µM (inactive)
- GI50 [38]: > 100 µM (inactive)
- GI50 [39]: > 100 µM (inactive)
- GI50 [40]: > 100 µM (inactive)
- GI50 [58]: > 100 µM (inactive)
- GI50 [41]: 36.1 µM (inactive)
- GI50 [42]: > 100 µM (inactive)
- GI50 [43]: > 100 µM (inactive)
- GI50 [44]: > 100 µM (inactive)
- GI50 [45]: > 100 µM (inactive)
- GI50 [46]: > 100 µM (inactive)
- GI50 [47]: > 100 µM (inactive)
- GI50 [48]: 40.6 µM (inactive)
- GI50 [49]: > 100 µM (inactive)
- GI50 [59]: > 100 µM (inactive)
- GI50 [50]: > 100 µM (inactive)
- GI50 [51]: > 100 µM (inactive)
- GI50 [52]: > 100 µM (inactive)
- GI50 [53]: > 100 µM (inactive)
- GI50 [54]: > 100 µM (inactive)
- GI50 [55]: > 100 µM (inactive)

SMILES: C=C1C(=O)O[C@H]2C3OC3(C)CC/C=C(/C(=O)OC)[C@@H](OC(C)=O)[C@H](OC(=O)C3(C)OC3C)[C@H]12 (stereo partly drawn)
- GI50 [1]: 7.8 µM (inactive)
- GI50 [3]: > 7.5 µM (inactive)
- GI50 [7]: 13.6 µM (inactive)
- GI50 [13]: 1.65 µM (inactive)
- GI50 [15]: 1.04 µM (active)
- GI50 [16]: 0.186 µM (active)
- GI50 [18]: 2.94 µM (inactive)
- GI50 [21]: 1.12 µM (active)
- GI50 [23]: 0.989 µM (active)
- GI50 [24]: 0.297 µM (active)
- GI50 [25]: 2.05 µM (inactive)
- GI50 [57]: 0.196 µM (active)
- GI50 [33]: 2.07 µM (inactive)
- GI50 [40]: 0.299 µM (active)
- GI50 [43]: 2.17 µM (inactive)
- GI50 [59]: 1.61 µM (inactive)
- GI50 [53]: 3.73 µM (inactive)
